In US10022355B2, “Diaryl and arylheteroaryl urea derivatives as modulators of the 5-HT2A serotonin receptor useful for the prophylaxis and treatment of REM sleep behavior disorder” (Axovant Sciences GmbH, priority 2015, dated 2018):
“Also recorded” adds a separate entry of the source.

Assays:
[1] = elderly patients; cited from earlier work
[2] = Completed Phase 1 and Phase 2 clinical studies of nelotanserin (originally for primary insomnia); type: in vivo, human
Experimental: Nelotanserin: Nelotanserin (RVT-102), previously known as APD-125, is a potent and selective 5HT2a receptor inverse agonist, and is currently being developed as an oral treatment for REM sleep behavior disorder in patients with DLB. Originally being developed for primary insomnia, seven clinical studies have been completed to date that included five Phase 1 and two Phase 2 studies, and 792 individuals have been exposed to nelotanserin over the dose range of 20 to 160 mg and up to 14 days.

| Compound | side effects [1] | sleep maintenance and consolidation ([2]; Phase 1 and Phase 2 studies) | slow wave sleep ([2]; Phase 1 and Phase 2 studies) | safety and tolerability profile ([2]; five Phase 1 and two Phase 2 studies, 792 individuals exposed, dose range 20 to 160 mg, up to 14 days) | number of sleep phase transitions ([2]; previous clinical studies) |
| --- | --- | --- | --- | --- | --- |
| O=C1CN=C(c2ccccc2Cl)c2cc([N+](=O)[O-])ccc2N1 [Clonazepam, clonazepam] | confusion, daytime sedation, and increased risk of falls |  |  |  |  |
| COc1ccc(NC(=O)Nc2ccc(F)cc2F)cc1-c1c(Br)cnn1C [nelotanserin] |  | improves sleep maintenance and consolidation | increases slow wave sleep | favorable safety and tolerability profile; also recorded: acceptable safety and tolerability profile | reduces the number of sleep phase transitions |
